Measurements published in the kinase profiling compilation of Christmann-Franck et al. (2016).

Experiments:
Assay in all cases: KINOMEscan competition binding
Settings in all cases: compound 10.0 µM
NEK2 (human) = NEK2 (human) (UniProt P51955)
RPS6KA2 KD2 (human) = RPS6KA2 KD2 (human) (UniProt Q15349)
PDGFRB (human) = PDGFRB (human) (UniProt P09619)
ULK2 (human) = ULK2 (human) (UniProt Q8IYT8)
PIM2 (human) = PIM2 (human) (UniProt Q9P1W9)
ADCK4 (human) = ADCK4 (human) (UniProt Q96D53)
RIPK4 (human) = RIPK4 (human) (UniProt P57078)
EPHA1 (human) = EPHA1 (human) (UniProt P21709)
BRAF (human) = BRAF (human) (UniProt P15056)
STK17A (human) = STK17A (human) (UniProt Q9UEE5)
EPHB1 (human) = EPHB1 (human) (UniProt P54762)
CSNK1G2 (human) = CSNK1G2 (human) (UniProt P78368)
CSNK1E (human) = CSNK1E (human) (UniProt P49674)
EPHA7 (human) = EPHA7 (human) (UniProt Q15375)
PIK3CA (human) = PIK3CA (human) (UniProt P42336)
MAP3K9 (human) = MAP3K9 (human) (UniProt P80192)
SRPK3 (human) = SRPK3 (human) (UniProt Q9UPE1)
TESK1 (human) = TESK1 (human) (UniProt Q15569)
STK11 (human) = STK11 (human) (UniProt Q15831)
BRSK1 (human) = BRSK1 (human) (UniProt Q8TDC3)
CDK8 (human) = CDK8 (human) (UniProt P49336)
[1] = target: JAK3 JH1 catalytic (human) (UniProt P52333)
TAOK3 (human) = TAOK3 (human) (UniProt Q9H2K8)
ZAP70 (human) = ZAP70 (human) (UniProt P43403)
CAMK2A (human) = CAMK2A (human) (UniProt Q9UQM7)
PRKG1 (human) = PRKG1 (human) (UniProt Q13976)
RPS6KA6 KD2 (human) = RPS6KA6 KD2 (human) (UniProt Q9UK32)
PIK3CG (human) = PIK3CG (human) (UniProt P48736)
NLK (human) = NLK (human) (UniProt Q9UBE8)
RET (human) = RET (human) (UniProt P07949)
SIK1 (human) = SIK1 (human) (UniProt P57059)
PIP5K1C (human) = PIP5K1C (human) (UniProt O60331)
CRK2 (P.falciparum) = CRK2 (P.falciparum) (UniProt P61075)
AKT2 (human) = AKT2 (human) (UniProt P31751)
IRAK4 (human) = IRAK4 (human) (UniProt Q9NWZ3)
SBK1 (human) = SBK1 (human) (UniProt Q52WX2)
MATK (human) = MATK (human) (UniProt P42679)
CDKL1 (human) = CDKL1 (human) (UniProt Q00532)
DYRK2 (human) = DYRK2 (human) (UniProt Q92630)
NEK3 (human) = NEK3 (human) (UniProt P51956)

Chain of TAOK3 (human) (Q9H2K8 whole entry, looked up): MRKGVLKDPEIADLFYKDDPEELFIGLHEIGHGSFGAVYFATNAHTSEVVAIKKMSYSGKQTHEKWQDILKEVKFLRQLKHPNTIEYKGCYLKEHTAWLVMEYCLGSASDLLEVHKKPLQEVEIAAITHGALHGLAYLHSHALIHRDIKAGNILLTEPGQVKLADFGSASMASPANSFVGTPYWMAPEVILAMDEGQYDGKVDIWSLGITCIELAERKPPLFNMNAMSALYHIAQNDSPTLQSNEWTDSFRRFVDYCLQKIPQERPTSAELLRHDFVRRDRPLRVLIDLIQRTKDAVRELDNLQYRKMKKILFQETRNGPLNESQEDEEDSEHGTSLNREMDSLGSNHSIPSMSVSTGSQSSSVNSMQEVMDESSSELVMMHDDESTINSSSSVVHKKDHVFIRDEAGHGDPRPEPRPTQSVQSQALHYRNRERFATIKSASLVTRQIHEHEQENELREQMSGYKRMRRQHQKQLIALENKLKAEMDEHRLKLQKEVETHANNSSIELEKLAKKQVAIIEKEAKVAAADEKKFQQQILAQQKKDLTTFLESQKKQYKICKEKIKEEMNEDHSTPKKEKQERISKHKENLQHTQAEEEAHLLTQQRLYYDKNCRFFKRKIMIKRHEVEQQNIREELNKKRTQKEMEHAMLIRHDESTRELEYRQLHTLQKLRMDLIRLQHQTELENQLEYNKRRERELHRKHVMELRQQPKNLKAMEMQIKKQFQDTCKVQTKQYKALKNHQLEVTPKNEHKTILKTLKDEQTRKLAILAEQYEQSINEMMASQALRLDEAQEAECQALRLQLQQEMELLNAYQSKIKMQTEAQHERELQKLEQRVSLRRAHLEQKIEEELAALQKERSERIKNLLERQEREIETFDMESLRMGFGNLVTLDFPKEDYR
Chain of RIPK4 (human) (P57078 whole entry, looked up): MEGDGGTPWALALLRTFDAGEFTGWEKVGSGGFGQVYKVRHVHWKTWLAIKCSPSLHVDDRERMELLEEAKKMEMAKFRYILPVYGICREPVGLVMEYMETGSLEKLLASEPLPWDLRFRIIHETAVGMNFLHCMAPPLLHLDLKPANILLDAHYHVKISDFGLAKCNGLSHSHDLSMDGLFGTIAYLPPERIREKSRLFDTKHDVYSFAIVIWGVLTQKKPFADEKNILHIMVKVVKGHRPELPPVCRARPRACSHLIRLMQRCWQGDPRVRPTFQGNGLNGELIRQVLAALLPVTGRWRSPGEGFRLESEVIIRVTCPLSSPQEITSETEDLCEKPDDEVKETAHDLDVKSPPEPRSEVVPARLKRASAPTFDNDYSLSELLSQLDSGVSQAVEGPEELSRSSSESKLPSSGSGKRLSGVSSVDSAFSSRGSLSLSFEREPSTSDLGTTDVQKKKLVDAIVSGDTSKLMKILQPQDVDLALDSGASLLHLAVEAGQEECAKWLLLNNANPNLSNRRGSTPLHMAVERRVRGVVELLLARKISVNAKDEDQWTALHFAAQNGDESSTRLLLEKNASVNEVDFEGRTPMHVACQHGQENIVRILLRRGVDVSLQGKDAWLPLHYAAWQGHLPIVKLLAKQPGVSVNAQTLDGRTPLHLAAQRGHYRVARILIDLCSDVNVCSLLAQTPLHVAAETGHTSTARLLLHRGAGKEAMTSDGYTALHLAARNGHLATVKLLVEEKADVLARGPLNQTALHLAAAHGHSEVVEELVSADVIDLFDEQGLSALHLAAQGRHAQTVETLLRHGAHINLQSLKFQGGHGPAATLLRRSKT
Chain of PIK3CA (human) (P42336 whole entry, looked up): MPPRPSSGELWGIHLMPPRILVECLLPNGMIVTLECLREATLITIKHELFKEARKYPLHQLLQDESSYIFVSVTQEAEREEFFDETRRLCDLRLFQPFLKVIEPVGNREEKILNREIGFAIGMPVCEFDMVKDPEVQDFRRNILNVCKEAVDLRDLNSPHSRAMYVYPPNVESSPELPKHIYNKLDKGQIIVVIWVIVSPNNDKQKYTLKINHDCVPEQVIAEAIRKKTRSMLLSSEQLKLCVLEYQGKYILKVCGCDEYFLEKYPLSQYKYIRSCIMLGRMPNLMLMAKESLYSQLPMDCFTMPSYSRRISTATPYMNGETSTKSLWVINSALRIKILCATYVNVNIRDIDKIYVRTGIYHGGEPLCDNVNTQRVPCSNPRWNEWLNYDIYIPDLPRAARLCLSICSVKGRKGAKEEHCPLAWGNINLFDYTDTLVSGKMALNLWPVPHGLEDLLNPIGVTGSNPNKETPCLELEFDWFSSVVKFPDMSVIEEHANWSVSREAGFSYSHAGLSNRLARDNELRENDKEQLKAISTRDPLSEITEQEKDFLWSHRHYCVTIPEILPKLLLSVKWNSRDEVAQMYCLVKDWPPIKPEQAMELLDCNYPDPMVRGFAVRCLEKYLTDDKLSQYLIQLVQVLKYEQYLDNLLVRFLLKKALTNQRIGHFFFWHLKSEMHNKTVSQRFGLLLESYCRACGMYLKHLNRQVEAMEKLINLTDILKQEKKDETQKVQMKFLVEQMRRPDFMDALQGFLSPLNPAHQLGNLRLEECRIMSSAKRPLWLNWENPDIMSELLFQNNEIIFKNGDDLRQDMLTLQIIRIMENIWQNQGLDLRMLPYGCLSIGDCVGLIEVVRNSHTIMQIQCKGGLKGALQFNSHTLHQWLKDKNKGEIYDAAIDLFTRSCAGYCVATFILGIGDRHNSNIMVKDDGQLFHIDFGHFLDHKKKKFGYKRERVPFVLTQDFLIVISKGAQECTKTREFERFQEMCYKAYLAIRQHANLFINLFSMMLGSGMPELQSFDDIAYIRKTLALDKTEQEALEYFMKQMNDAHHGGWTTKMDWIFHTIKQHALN
Chain of EPHA7 (human) (Q15375 whole entry, looked up): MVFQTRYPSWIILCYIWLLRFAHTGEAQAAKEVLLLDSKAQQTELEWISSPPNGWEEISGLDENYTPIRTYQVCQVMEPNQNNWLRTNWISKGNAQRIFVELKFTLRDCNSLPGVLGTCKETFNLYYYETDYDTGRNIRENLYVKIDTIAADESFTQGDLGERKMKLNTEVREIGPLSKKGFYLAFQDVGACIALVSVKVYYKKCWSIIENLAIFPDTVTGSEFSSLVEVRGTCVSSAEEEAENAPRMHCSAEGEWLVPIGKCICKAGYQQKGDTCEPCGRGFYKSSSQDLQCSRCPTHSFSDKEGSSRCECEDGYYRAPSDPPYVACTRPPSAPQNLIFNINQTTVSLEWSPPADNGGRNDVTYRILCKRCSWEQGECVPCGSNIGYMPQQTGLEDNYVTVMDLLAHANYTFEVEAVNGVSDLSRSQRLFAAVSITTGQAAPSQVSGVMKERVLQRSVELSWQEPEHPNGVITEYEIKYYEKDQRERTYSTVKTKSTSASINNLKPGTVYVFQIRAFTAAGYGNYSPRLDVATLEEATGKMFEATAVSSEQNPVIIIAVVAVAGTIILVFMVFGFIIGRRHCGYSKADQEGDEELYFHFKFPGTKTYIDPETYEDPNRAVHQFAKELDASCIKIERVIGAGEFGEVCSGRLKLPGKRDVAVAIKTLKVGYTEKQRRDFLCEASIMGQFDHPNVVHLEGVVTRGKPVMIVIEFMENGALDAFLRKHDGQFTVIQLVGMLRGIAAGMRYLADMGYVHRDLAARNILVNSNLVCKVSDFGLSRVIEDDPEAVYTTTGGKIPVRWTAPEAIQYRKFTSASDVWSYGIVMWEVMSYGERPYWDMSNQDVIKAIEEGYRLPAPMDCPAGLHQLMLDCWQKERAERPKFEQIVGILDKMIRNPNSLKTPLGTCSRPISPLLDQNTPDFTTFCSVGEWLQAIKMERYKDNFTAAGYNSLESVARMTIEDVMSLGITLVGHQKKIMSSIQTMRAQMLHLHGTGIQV
Chain of SIK1 (human) (P57059 whole entry, looked up): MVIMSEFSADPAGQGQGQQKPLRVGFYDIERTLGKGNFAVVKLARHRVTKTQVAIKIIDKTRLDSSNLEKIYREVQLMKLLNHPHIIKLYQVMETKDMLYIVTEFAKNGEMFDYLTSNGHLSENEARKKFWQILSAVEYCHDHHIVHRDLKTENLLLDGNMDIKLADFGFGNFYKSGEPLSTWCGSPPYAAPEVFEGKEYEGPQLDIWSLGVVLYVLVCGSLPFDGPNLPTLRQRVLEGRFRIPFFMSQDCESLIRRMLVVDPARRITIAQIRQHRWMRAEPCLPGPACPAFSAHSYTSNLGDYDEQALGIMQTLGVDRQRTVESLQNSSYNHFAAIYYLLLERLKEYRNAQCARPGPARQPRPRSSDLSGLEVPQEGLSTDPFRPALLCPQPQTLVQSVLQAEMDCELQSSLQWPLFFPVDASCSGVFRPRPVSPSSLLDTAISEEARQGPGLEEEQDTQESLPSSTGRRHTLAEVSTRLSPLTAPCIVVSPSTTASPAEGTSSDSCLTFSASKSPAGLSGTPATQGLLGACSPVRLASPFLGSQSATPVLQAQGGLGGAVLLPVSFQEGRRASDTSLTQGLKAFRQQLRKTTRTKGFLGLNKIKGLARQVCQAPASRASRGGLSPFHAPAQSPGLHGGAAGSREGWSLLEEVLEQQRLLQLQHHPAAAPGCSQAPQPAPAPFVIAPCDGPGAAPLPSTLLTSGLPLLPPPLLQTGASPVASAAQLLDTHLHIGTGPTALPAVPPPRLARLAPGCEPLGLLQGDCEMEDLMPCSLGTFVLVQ
Chain of CSNK1E (human) (P49674 whole entry, looked up): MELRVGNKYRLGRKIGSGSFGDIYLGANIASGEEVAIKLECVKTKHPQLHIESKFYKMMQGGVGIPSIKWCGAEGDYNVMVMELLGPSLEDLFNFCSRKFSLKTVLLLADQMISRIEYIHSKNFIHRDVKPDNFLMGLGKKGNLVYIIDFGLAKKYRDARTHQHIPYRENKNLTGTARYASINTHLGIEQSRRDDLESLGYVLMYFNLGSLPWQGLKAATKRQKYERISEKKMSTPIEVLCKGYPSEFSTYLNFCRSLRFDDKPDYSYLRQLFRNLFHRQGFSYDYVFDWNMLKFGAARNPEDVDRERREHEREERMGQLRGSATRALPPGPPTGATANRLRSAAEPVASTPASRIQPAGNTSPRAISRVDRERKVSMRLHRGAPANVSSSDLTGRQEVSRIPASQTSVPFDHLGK

| SMILES | kinase still bound, per cent of control (NEK2 (human)) [%] | kinase still bound, per cent of control (RPS6KA2 KD2 (human)) [%] | kinase still bound, per cent of control (PDGFRB (human)) [%] | kinase still bound, per cent of control (PIM2 (human)) [%] | kinase still bound, per cent of control (ADCK4 (human)) [%] | kinase still bound, per cent of control (EPHA1 (human)) [%] | kinase still bound, per cent of control (STK17A (human)) [%] | kinase still bound, per cent of control (EPHB1 (human)) [%] | kinase still bound, per cent of control (CSNK1G2 (human)) [%] | kinase still bound, per cent of control (CSNK1E (human)) [%] | kinase still bound, per cent of control (EPHA7 (human)) [%] | kinase still bound, per cent of control (PIK3CA (human)) [%] | kinase still bound, per cent of control (MAP3K9 (human)) [%] | kinase still bound, per cent of control (TESK1 (human)) [%] | kinase still bound, per cent of control (STK11 (human)) [%] | kinase still bound, per cent of control (BRSK1 (human)) [%] | kinase still bound, per cent of control (CDK8 (human)) [%] | kinase still bound, per cent of control [1] [%] | kinase still bound, per cent of control (ZAP70 (human)) [%] | kinase still bound, per cent of control (CAMK2A (human)) [%] | further results |
| --- | --- | --- | --- | --- | --- | --- | --- | --- | --- | --- | --- | --- | --- | --- | --- | --- | --- | --- | --- | --- | --- |
| Cc1n[nH]c2ccc(-c3cncc(OC[C@@H](N)Cc4c[nH]c5ccccc45)c3)cc12 | 100 | 100 | 28 | 1.2 | 100 | 100 | 5.4 | 100 | 0.65 | 0.05 | 100 | 100 | 100 | 100 | 30 | 100 | 9.6 | 32 | 100 | 0.7 | kinase still bound, per cent of control (ULK2 (human)): 12%; kinase still bound, per cent of control (RIPK4 (human)): 100%; kinase still bound, per cent of control (BRAF (human)): 100%; kinase still bound, per cent of control (SRPK3 (human)): 0.95%; kinase still bound, per cent of control (TAOK3 (human)): 0.1%; kinase still bound, per cent of control (PRKG1 (human)): 0.65%; kinase still bound, per cent of control (RPS6KA6 KD2 (human)): 100%; kinase still bound, per cent of control (PIK3CG (human)): 100%; kinase still bound, per cent of control (NLK (human)): 100%; kinase still bound, per cent of control (RET (human)): 100%; kinase still bound, per cent of control (SIK1 (human)): 100% |
| O=C1NC(=O)/C(=C/c2ccc3nccc(-c4ccncc4)c3c2)S1 | 64 | 12 | 55 | 1 | 35 | 85 | 0.2 | 90 | 0.05 | 2.6 | 88 | 0.05 | 76 | 84 | 12 | 73 | 7.3 | 0 | 93 | 4.8 | kinase still bound, per cent of control (PIP5K1C (human)): 28%; kinase still bound, per cent of control (ULK2 (human)): 65%; kinase still bound, per cent of control (RIPK4 (human)): 56%; kinase still bound, per cent of control (CRK2 (P.falciparum)): 93%; kinase still bound, per cent of control (AKT2 (human)): 100%; kinase still bound, per cent of control (IRAK4 (human)): 47%; kinase still bound, per cent of control (SRPK3 (human)): 31%; kinase still bound, per cent of control (SBK1 (human)): 73%; kinase still bound, per cent of control (MATK (human)): 50%; kinase still bound, per cent of control (TAOK3 (human)): 13%; kinase still bound, per cent of control (CDKL1 (human)): 61%; kinase still bound, per cent of control (DYRK2 (human)): 5.4%; kinase still bound, per cent of control (PRKG1 (human)): 75%; kinase still bound, per cent of control (RPS6KA6 KD2 (human)): 5.2%; kinase still bound, per cent of control (PIK3CG (human)): 0%; kinase still bound, per cent of control (NLK (human)): 84%; kinase still bound, per cent of control (NEK3 (human)): 77%; kinase still bound, per cent of control (RET (human)): 98%; kinase still bound, per cent of control (SIK1 (human)): 96% |
| CCN(CC)CCCCNc1ncc2cc(-c3cc(OC)cc(OC)c3)c(NC(=O)NC(C)(C)C)nc2n1 | 100 | 100 | 38 | 100 | 100 | 100 | 100 | 100 | 100 | 100 | 100 | 20 | 100 | 100 | 100 | 100 | 100 | 100 | 100 | 100 | kinase still bound, per cent of control (BRAF (human)): 100%; kinase still bound, per cent of control (AKT2 (human)): 100%; kinase still bound, per cent of control (PRKG1 (human)): 100%; kinase still bound, per cent of control (RPS6KA6 KD2 (human)): 100%; kinase still bound, per cent of control (NLK (human)): 100%; kinase still bound, per cent of control (RET (human)): 26%; kinase still bound, per cent of control (SIK1 (human)): 100% |
| COc1cc2ncnc(-n3nc(-c4ccccn4)nc3N)c2cc1OC | 57 | 43 | 3.4 | 78 | 14 | 14 | 1.6 | 32 | 1.1 | 1.6 | 18 | 38 | 70 | 100 | 100 | 18 | 100 | 33 | 32 | 44 | kinase still bound, per cent of control (PIP5K1C (human)): 5%; kinase still bound, per cent of control (ULK2 (human)): 3%; kinase still bound, per cent of control (RIPK4 (human)): 12%; kinase still bound, per cent of control (CRK2 (P.falciparum)): 94%; kinase still bound, per cent of control (AKT2 (human)): 42%; kinase still bound, per cent of control (IRAK4 (human)): 5.8%; kinase still bound, per cent of control (SRPK3 (human)): 38%; kinase still bound, per cent of control (SBK1 (human)): 100%; kinase still bound, per cent of control (MATK (human)): 57%; kinase still bound, per cent of control (TAOK3 (human)): 39%; kinase still bound, per cent of control (CDKL1 (human)): 21%; kinase still bound, per cent of control (DYRK2 (human)): 0.25%; kinase still bound, per cent of control (PRKG1 (human)): 100%; kinase still bound, per cent of control (RPS6KA6 KD2 (human)): 6.2%; kinase still bound, per cent of control (PIK3CG (human)): 3.1%; kinase still bound, per cent of control (NLK (human)): 6.6%; kinase still bound, per cent of control (NEK3 (human)): 87%; kinase still bound, per cent of control (RET (human)): 20%; kinase still bound, per cent of control (SIK1 (human)): 45% |
